Measured values as given in US6593342B1, “Pharmaceutical compositions comprising 2-quinolones” (Laboratoire L. Lafon, priority 1998, dated 2003).

Experiments:
Type in all cases: cell-based
J82 = experiment: MTT test, J82; conditions: Homo sapiens, 10^−5 M, 72 hours, control = 100%, mean ± SEM, read-out: average optical density (MTT), percentage relative to control
Method: (§1) The influence of the compounds of formulae (I) and (Ia) on non-clonogenic cells was evaluated with the aid of the MTT calorimetric test.
(§2) The principle of the MTT test is based on the mitochondrial reduction, by the metabolically active live cells, of the yellow-colored product MTT (3-(4,5-dimethylthiazol-2-yl)-2,5-diphenyltetrazolium bromide) to a blue-colored product, formazan. The amount of formazan thus obtained is directly proportional to the amount of live cells present in the culture well(s). This amount of formazan is measured by spectrophotometry.
(§3) The cell lines are maintained as a monolayer culture at 37° C. in stoppered culture dishes containing MEM 25 MM HEPES (Minimum Essential Medium) base medium. This medium is suited to the growth of a range of various mammalian diploid or primary cells. This medium is then supplemented with:
(§4) an amount of 5% of FCS (Foetal Calf Serum) decomplemented at 56° C. for 1 hour,
(§5) 0.6 mg/ml of L-glutamine,
(§6) 200 μg/ml of streptomycin,
(§7) The 12 human cancer cell lines which were used were obtained from the American Type Culture Collection (ATCC, Rockville, Md., USA). These 12 cell lines are:
J82 (code ATCC: HTB-1) and T24 (code ATCC: HTB-4) which are two bladder cancers,
(§8) Experimentally: 100 μl of a cell suspension containing 20 000 to 50 000 (depending on the cell type used) cells/ml of culture medium are inoculated in 96-well flat-bottomed multi-well plates and are incubated at 37° C., under an atmosphere comprising 5% CO2 and 70% humidity. After incubation for 24 hours, the culture medium is replaced with 100 μl of fresh medium containing either the various test compounds at concentrations ranging from 10^−5 to 10^−10 M or the solvent used to dissolve the test products (control condition). After incubation for 72 hours under the above conditions, the culture medium is replaced with 100 μl of a yellowish solution of MTT dissolved at a rate of 1 mg/ml in RPMI 1640. The microplates are reincubated for 3 hours at 37° C. and are then centrifuged for 10 minutes at 400×g. The yellowish solution of MTT is removed and the blue formazan crystals formed in the cell are dissolved in 100 μl of DMSO. The microplates are then shaken for 5 minutes. The intensity of the resulting blue coloration, and thus of the conversion of the yellow product MTT into blue formazan by the cells that are still alive at the end of the experiment, is quantified by spectrophotometry using a Dynatech Immunoassay System machine at wavelengths of 570 nm and 630 nm corresponding, respectively, to the maximum absorption wavelengths of formazan and to the background noise. Software incorporated in the spectrophotometer calculates the average optical density values and the standard deviation (SD) and standard error of mean (SEM) values.
(§9) By way of example, the results of the average optical density, expressed as a percentage relative to the average optical density measured under the control condition (set equal to 100%), obtained at a concentration of 10^−5 M on the 12 abovementioned tumor cell lines are given in Table II.

LoVo = experiment: MTT test, LoVo; conditions: Homo sapiens, 10^−5 M, 72 hours, control = 100%, mean ± SEM, read-out: average optical density (MTT), percentage relative to control
Method: as §1, §2, §3, §4, §5, §6, §7
HTC-15 (code ATCC: CCL-225) and LoVo (code ATCC: CCL-229) which are two colorectal cancers,
as §8, §9

T-47D = experiment: MTT test, T-47D; conditions: Homo sapiens, T47D, 10^−5 M, 72 hours, control = 100%, mean ± SEM, read-out: average optical density (MTT), percentage relative to control
Method: as §1, §2, §3, §4, §5, §6, §7
T-47D (code ATCC: HTB-133) and MCF7 (code ATCC: HTB-22) which are two breast cancers,
as §8, §9

SMILES | viability at 10 µM (J82) [%] | viability at 10 µM (LoVo) [%] | viability at 10 µM (T-47D) [%]
COc1ccc(-c2cc3c(OC)cc(OC)cc3n(CCN(C)C)c2=O)cc1 [CRL8316, 1-[2-(Dimethylamino)ethyl]-5,7-dimethoxy-3-(4-methoxyphenyl)-1,2-dihydro-2-quinolinone] | 26.9 ± 0.9 | 73.9 ± 2.1 | 68.8 ± 2.4
CCN(CC)C(=O)Cn1c(=O)c(-c2ccc(OC)cc2)cc2c(OC)cc(OC)cc21 [CRL8315, N,N-Diethyl-2-[5,7-dimethoxy-3-(4-methoxy-phenyl)-2-oxo-1,2-dihydro-1-quinolinyl]acetamide] | 65.9 ± 1.3 | 78.9 ± 2.1 | 101 ± 2.5
CCN(CC)C(=O)CCn1c(=O)c(-c2ccc(OC)cc2)cc2c(OC)cc(OC)cc21 [CRL8283, N,N-Diethyl-3-[5,7-dimethoxy-3-(4-methoxy-phenyl)-2-oxo-1,2-dihydro-1-quinolinyl]propanamide] | 71.6 ± 2.2 | 97.3 ± 3.6 | 81 ± 3.1
COc1ccc(-c2cc3c(OC)cc(OC)cc3[nH]c2=O)cc1 [CRL8246, 5,7-Dimethoxy-3-(4-methoxyphenyl)-1,2-dihydro-2-quinolinone] | 87.6 ± 2.2 | 109 ± 7 | 96 ± 2.6
COc1ccc(-c2cc3c(OC)cc(OC)cc3n(CCC#N)c2=O)cc1 [CRL8247, 3-[5,7-Dimethoxy-3-(4-methoxyphenyl)-2-oxo-1,2-dihydro-1-quinolinyl]propanenitrile] | 55 ± 2.3 | 66.4 ± 2.5 | 58.3 ± 1.4
COc1ccc(-c2cc3c(OC)cc(OC)cc3n(CCc3nnn[nH]3)c2=O)cc1 [CRL8256, 1-[2-(1H-1,2,3,4-Tetrazol-5-yl)ethyl]-5,7-dimethoxy-3-(4-methoxyphenyl)-1,2-dihydro-2-quinolinone] | 77.8 ± 0.8 | 93 ± 2.3 | 77.5 ± 3.6
